Test results: patent publication US20250275953A1, “VODOBATINIB FOR REDUCING PROGRESSION OF PARKINSON'S DISEASE” (Sun Pharma Advanced Research Company Ltd., priority 2022, published 2025)
Read-outs that look alike come from different tables or passages of the source.

Experiment: Plasma pharmacokinetics, 7 once-daily oral doses, healthy volunteers
Assay type: in vivo, human
Conditions: male, human, plasma, oral
Procedure: After 28 days of screening, the subjects were studied in sequential cohorts of 6 subjects each. The study was conducted for 17 days. […] After the dose, subjects continued to fast for additional 4 hours, water was allowed ad libitum with the exception of 1 hour prior and 1-hour post dose.
The plasma and CSF samples were analyzed, by validated LC/MS-MS methods. PK analysis was conducted based on PK/PP Population: Cmax, AUC0-t, AUC0-24, AUC0-∞, Tmax, Cavg, CL/F, Cmin, t1/2, Kel, Vd (V/F; Vd/F), and Vss/F. Model-independent plasma PK parameters (Cmax, Tmax, t1/2, AUC0-t, AUC0-24, AUC0-∞, Cavg, CL/F, Vss/F, Vd/F), after the first dose (Day 1) and last dose (Day 7), Cmin on Days 2-7) was listed by subject and summarized by study cohort. In addition to the descriptive statistics listed above, geometric means was reported for the pivotal PK endpoints (CL/F, Vss/F, Vd/F, Cmin, Cavg, AUC0-t, AUC0-24, AUC0-∞, and Cmax). For CSF, PK parameters (Cmax, Tmax, t1/2, AUC0-t, AUC0-24, Cmin, Cavg, CL/F, Vss/F) was listed by subject and summarized by cohort. Ratios of CSF: plasma concentration at each time point was listed by subject and summarized by study cohort.
Forty-one healthy adult male volunteers aged 18 to 45 with body mass indexes (BMI)≥18 to ≤30 Kg/m^2 and total body weight >50 kg (110 lb) were screened in order to enroll 19 subjects with an average age of 34.2 years (range 21.5-45.6 years) into this study Six participants were randomly assigned to the 48 and 192 mg cohorts, and seven participants were assigned to the 384 mg cohort. After an overnight fast, participants received once daily doses of vodobatinib as capsules for 7 days. Serial PK blood samples to measure vodobatinib plasma concentrations were collected at pre-dose and at 0.25, 0.5, 1, 1.5, 2, 2.5, 3, 4, 6, 8, 12, 16 and 24 h post-dose after the first dose on Day 1 and the last dose on day 7. Additional PK samples prior to the morning doses were taken on Days 3-6. On the morning of Day 7, prior to dosing, an indwelling intrathecal catheter was inserted in the lumbar region (L3-L5). Serial CSF samples were collected through the catheter connected via peristaltic pump to a fraction collector. At each designated CSF collection time point, 8 mL of CSF was collected at a flow rate of 0.5 mL/min over a 16-min period at pre-dose, and 0.5, 1.0, 1.5, 2, 2.5, 3, 4, 6, 8, 12 and 24 h post-dose. The first 2 mL of CSF was discarded, and the remaining 6 mL was used for the vodobatinib assay. The occurrence of treatment-emergent adverse events (TEAEs) and serious AEs (SAEs) reported through the completion of study were collected.

Cc1ccc(C(=O)NNC(=O)c2c(C)cccc2Cl)cc1C#Cc1cnc2ccccc2c1 [N′-(2-chloro-6-methylbenzoyl)-4-methyl-3-[2-(3-quinolyl)ethynyl]-benzohydrazide]
AUC(0-t) (192 mg, Day 1, plasma, healthy volunteers, read-out: AUC0-24 Min, Max): 22400 to 45600 ng·h/mL | Cmax (192 mg, Day 1, plasma, healthy volunteers, read-out: Cmax AM): 3780 ng/mL | Cmax (192 mg, Day 1, plasma, healthy volunteers, read-out: Cmax GM): 3550 ng/mL | Cmax (192 mg, Day 1, plasma, healthy volunteers, read-out: Cmax Median): 3180 ng/mL | Cmax (192 mg, Day 1, plasma, healthy volunteers, read-out: Cmax Min, Max): 2740 to 7190 ng/mL | Tmax (192 mg, Day 1, plasma, healthy volunteers, read-out: Tmax Median): 3.5 h | Tmax (192 mg, Day 1, plasma, healthy volunteers, read-out: Tmax Min, Max): 1.62 to 4 h | Cmax (192 mg, Day 7, plasma, Healthy Subjects, Table 10, read-out: Cmax Mean): 5380 ng/mL | Tmax (192 mg, Day 7, plasma, Healthy Subjects, Table 10, read-out: Tmax median (range)): 4 h | AUC(0-t) (192 mg, Day 7, plasma, Healthy Subjects, read-out: AUC0-24 Mean): 44100 ng·h/mL | AUC(0-t) (192 mg, Day 7, plasma, healthy volunteers, read-out: AUC0-24 AM): 44100 ng·h/mL | AUC(0-t) (192 mg, Day 7, plasma, healthy volunteers, read-out: AUC0-24 GM): 39100 ng·h/mL | AUC(0-t) (192 mg, Day 7, plasma, healthy volunteers, read-out: AUC0-24 Median): 40100 ng·h/mL | AUC(0-t) (192 mg, Day 7, plasma, healthy volunteers, read-out: AUC0-24 Min, Max): 20700 to 91500 ng·h/mL | Cmax (192 mg, Day 7, plasma, healthy volunteers, read-out: Cmax AM): 5380 ng/mL | Cmax (192 mg, Day 7, plasma, healthy volunteers, read-out: Cmax GM): 5020 ng/mL | Cmax (192 mg, Day 7, plasma, healthy volunteers, read-out: Cmax Median): 4690 ng/mL | Cmax (192 mg, Day 7, plasma, healthy volunteers, read-out: Cmax Min, Max): 3120 to 10100 ng/mL | Tmax (192 mg, Day 7, plasma, healthy volunteers, read-out: Tmax Median): 4 h | Tmax (192 mg, Day 7, plasma, healthy volunteers, read-out: Tmax Min, Max): 4.01 to 4.08 h | Cmax (384 mg, Day 1, plasma, Healthy Subjects, Table 10, read-out: Cmax Mean): 6630 ng/mL | Tmax (384 mg, Day 1, plasma, Healthy Subjects, Table 10, read-out: Tmax median): 4 h | AUC(0-t) (384 mg, Day 1, plasma, Healthy Subjects, read-out: AUC0-24 Mean): 47600 ng·h/mL | AUC(0-t) (384 mg, Day 1, plasma, healthy volunteers, read-out: AUC0-24 AM): 47600 ng·h/mL | AUC(0-t) (384 mg, Day 1, plasma, healthy volunteers, read-out: AUC0-24 GM): 35500 ng·h/mL | AUC(0-t) (384 mg, Day 1, plasma, healthy volunteers, read-out: AUC0-24 Median): 41900 ng·h/mL | AUC(0-t) (384 mg, Day 1, plasma, healthy volunteers, read-out: AUC0-24 Min, Max): 6640 to 105000 ng·h/mL | Cmax (384 mg, Day 1, plasma, healthy volunteers, read-out: Cmax AM): 6630 ng/mL | Cmax (384 mg, Day 1, plasma, healthy volunteers, read-out: Cmax GM): 5390 ng/mL | Cmax (384 mg, Day 1, plasma, healthy volunteers, read-out: Cmax Median): 5580 ng/mL | Cmax (384 mg, Day 1, plasma, healthy volunteers, read-out: Cmax Min, Max): 1490 to 13700 ng/mL | Tmax (384 mg, Day 1, plasma, healthy volunteers, read-out: Tmax Median): 4 h | Tmax (384 mg, Day 1, plasma, healthy volunteers, read-out: Tmax Min, Max): 1.5 to 6 h | Cmax (384 mg, Day 7, plasma, Healthy Subjects, Table 10, read-out: Cmax Mean): 7850 ng/mL | Tmax (384 mg, Day 7, plasma, Healthy Subjects, Table 10, read-out: Tmax median (range)): 3.5 h | AUC(0-t) (384 mg, Day 7, plasma, Healthy Subjects, read-out: AUC0-24 Mean): 54900 ng·h/mL | AUC(0-t) (384 mg, Day 7, plasma, healthy volunteers, read-out: AUC0-24 AM): 54900 ng·h/mL | AUC(0-t) (384 mg, Day 7, plasma, healthy volunteers, read-out: AUC0-24 GM): 42100 ng·h/mL | AUC(0-t) (384 mg, Day 7, plasma, healthy volunteers, read-out: AUC0-24 Median): 50000 ng·h/mL | AUC(0-t) (384 mg, Day 7, plasma, healthy volunteers, read-out: AUC0-24 Min, Max): 11500 to 125000 ng·h/mL | Cmax (384 mg, Day 7, plasma, healthy volunteers, read-out: Cmax AM): 7880 ng/mL | Cmax (384 mg, Day 7, plasma, healthy volunteers, read-out: Cmax GM): 6650 ng/mL | Cmax (384 mg, Day 7, plasma, healthy volunteers, read-out: Cmax Median): 6500 ng/mL | Cmax (384 mg, Day 7, plasma, healthy volunteers, read-out: Cmax Min, Max): 2870 to 17900 ng/mL | Tmax (384 mg, Day 7, plasma, healthy volunteers, read-out: Tmax Median): 3.5 h | Tmax (384 mg, Day 7, plasma, healthy volunteers, read-out: Tmax Min, Max): 2.52 to 4.03 h
